For experiment [1], the target named is T1, recombinant human ALK5 (TGF-βR1) protein (Homo sapiens, UniProt P36897).
T1 construct: purchased Life Technologies PR9075A
T1 sequence (P36897 34-503): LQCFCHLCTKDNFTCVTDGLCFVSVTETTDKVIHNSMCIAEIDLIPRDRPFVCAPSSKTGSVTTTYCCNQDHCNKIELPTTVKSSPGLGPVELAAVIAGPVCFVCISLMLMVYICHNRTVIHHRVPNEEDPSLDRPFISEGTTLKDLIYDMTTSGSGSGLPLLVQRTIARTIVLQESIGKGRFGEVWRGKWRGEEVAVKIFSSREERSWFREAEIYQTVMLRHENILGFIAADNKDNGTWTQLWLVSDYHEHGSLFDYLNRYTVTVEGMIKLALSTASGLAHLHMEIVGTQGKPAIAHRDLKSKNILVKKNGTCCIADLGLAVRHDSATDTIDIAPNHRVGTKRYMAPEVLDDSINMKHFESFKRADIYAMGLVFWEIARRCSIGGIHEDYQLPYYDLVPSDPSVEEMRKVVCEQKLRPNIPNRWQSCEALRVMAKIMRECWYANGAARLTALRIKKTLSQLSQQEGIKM
Description: Biochemical ALK5 (TGF-βR1) assay to measure pKi (LANCE Ultra ULight kinase assay). The note with it: apparent pKi, converted from pIC50 using the Cheng-Prusoff equation. Summed up: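 TR-FRET kinase format: compound dose range 10 μM–25 pM equilibrated 60 min with human ALK5 and ULight-labelled topoisomerase 2α peptide in HEPES/MgCl2 buffer pH 7.5 with DTT. Reaction started with ATP (125 μM stock, 5× final), 60 min at 37° C, stopped with EDTA/Eu-anti-phospho antibody; pKi derived from pIC50 via Cheng-Prusoff.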

Experiment [2] relates to TGF-β-stimulated SMAD3 phosphorylation in BEAS-2B cells. Nature of the experiment: Cellular ALK5 potency assay, inhibition of TGF-β stimulated pSMAD3 formation in BEAS-2B cells. Format: cell-based. The note with it: Homo sapiens, inhibition of TGF-β (10 ng/mL) stimulated pSMAD3 formation, 1 hour compound incubation, read-out: BEAS2B pIC50 (converted). Summed up: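 Phospho-SMAD3 was quantified by AlphaLISA in lysates of human lung epithelial BEAS-2B cells. Compound was added 1 h (37 °C, HEPES/BSA-supplemented HBSS) before a 30 min challenge with 10 ng/mL TGF-β. Values are pIC50 relative to stimulated cells without compound.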

For the compound `CNCCn1cc(-c2cnc3ccc(-c4c(-c5cc(Cl)ccc5F)[nH]c5cccnc45)nc3c2)cn1` [Compound 25-2, 2-[4-[6-[2-(5-chloro-2-fluoro-phenyl)-1H-pyrrolo[3,2-b]pyridin-3-yl]-1,5-naphthyridin-3-yl]pyrazol-1-yl]-N-methyl-ethanamine], the Ki in experiment [1] is 0.398 to 3.16 nM. Besides, the IC50 in experiment [2] is 200 to 1260 nM.

Consider `CNCCn1cc(-c2cnc3ccc(-c4c(-c5cc(Cl)c(F)cc5F)[nH]c5cccnc45)nc3c2)cn1` [Compound 26-1, 2-[4-[6-[2-(5-chloro-2,4-difluoro-phenyl)-1H-pyrrolo[3,2-b]pyridin-3-yl]-1,5-naphthyridin-3-yl]pyrazol-1-yl]-N-methyl-ethanamine], for which the Ki in experiment [1] is 0.0398 to 0.316 nM. Also, the IC50 in experiment [2] was 200 to 1260 nM.

With `CNCCn1cc(-c2cnc3ccc(-c4c(-c5ccc(F)c(F)c5)[nH]c5cccnc45)nc3c2)cn1` [Compound 27-1, 2-[4-[6-[2-(3,4-difluorophenyl)-1H-pyrrolo[3,2-b]pyridin-3-yl]-1,5-naphthyridin-3-yl]pyrazol-1-yl]-N-methyl-ethanamine], the Ki in experiment [1] was 3.98 to 31.6 nM. Further, the IC50 in experiment [2] is 25.1 to 158 nM.

Turning to `CC(C)N1CCN(CCNc2cnc3ccc(-c4c[nH]nc4-c4cccc(Cl)c4)nc3c2)CC1` [Compound 28-1, 6-(3-(3-chlorophenyl)-1H-pyrazol-4-yl)-N-(2-(4-isopropylpiperazin-1-yl)ethyl)-1,5-naphthyridin-3-amine], the Ki in experiment [1] is 0.0398 to 0.316 nM. Also, the IC50 in experiment [2] was 25.1 to 158 nM.

For the compound `CC(C)N1CCN(CCNc2cnc3ccc(-c4nc[nH]c4-c4cccc(Cl)c4)nc3c2)CC1` [Compound 29-1, 6-(5-(3-chlorophenyl)-1H-imidazol-4-yl)-N-(2-(4-isopropylpiperazin-1-yl)ethyl)-1,5-naphthyridin-3-amine], in experiment [1], the Ki was 0.398 to 3.16 nM. Moreover, the IC50 in experiment [2] is at most 20 nM.

On to `C[C@@H]1CN(CCNc2cnc3ccc(-c4nc[nH]c4-c4cccc(Cl)c4)nc3c2)C[C@H](C)N1` [Compound 29-2, 6-[5-(3-chlorophenyl)-1H-imidazol-4-yl]-N-[2-[rac-(3R,5S)-3,5-dimethylpiperazin-1-yl]ethyl]-1,5-naphthyridin-3-amine], for which, in experiment [1], the Ki was 0.398 to 3.16 nM. In experiment [2], the IC50 was 25.1 to 158 nM.

For the compound `COC(=O)CC1CN(c2cnc3ccc(-c4nc[nH]c4-c4cccc(Cl)c4)nc3c2)CCN1` (stereo not shown) [Compound 29-3, methyl 2-(4-(6-(5-(3-chlorophenyl)-1H-imidazol-4-yl)-1,5-naphthyridin-3-yl)piperazin-2-yl)acetate], the Ki in experiment [1] is 0.398 to 3.16 nM. Moreover, the IC50 in experiment [2] is 25.1 to 158 nM.

As for `O=C(O)CC1CN(c2cnc3ccc(-c4nc[nH]c4-c4cccc(Cl)c4)nc3c2)CCN1` (stereo not shown) [Compound 29-4, 2-(4-(6-(5-(3-chlorophenyl)-1H-imidazol-4-yl)-1,5-naphthyridin-3-yl)piperazin-2-yl)acetic acid], the Ki in experiment [1] is 0.398 to 3.16 nM. Further, in experiment [2], the IC50 was 1580 to 10000 nM.

Source of the values: patent US11730720B2, “ALK5 inhibitors” (THERAVANCE BIOPHARMA R&D IP, LLC, priority 2018, dated 2023).
